Structures are written as SMILES. Where “and” joins values, the source holds several entries; their conditions need not be identical. Identical values can stand only once. Square brackets hold non-standard residues; d marks the D form. Peptide text beside a SMILES is read from it. * marks the point of attachment. O(cholesteryl) = CC(C)CCC[C@@H](C)[C@H]1CC[C@H]2[C@@H]3CC=C4C[C@@H](O*)CC[C@]4(C)[C@H]3CC[C@]12C; Nicotinoyl(1-Me-1,4-dihydro) = CN1C=CCC(C(=O)*)=C1

The subject of data set [1] is Swiss Webster mice. The data set is described as follows: Methohexital (barbiturate)-induced sleeping time in mice after i.v. injection. In kind it is in vivo. Particulars: mice; for methohexital induced sleeping time, individual animals / methohexital induced sleeping time, mean: methohexital 90 mg/kg i.p. 10 min later. The source says:
Two representative chemical delivery systems (CDS's) of the invention for the TRH analog [Leu^2 ]-TRH, i.e., compound (8) of Scheme I/EXAMPLE 8, which has an alanine spacer, and compound (12) of Scheme II/Example 12, which has an alanine-alanine spacer, were studied for their effects on the barbiturate-induced sleeping time in mice. TRH is known to antagonize the reduction in cholinergic activity induced by barbiturates. Thus, the activational effects of the CDS's for TRH analogs on cholinergic neurons can be measured by quantitating the antagonism of pentobarbital-induced sleeping and barbiturate-induced reduction in cholinergic neuronal activity.
Swiss Webster mice weighing 30±2 g were used. The compounds were dissolved in a vehicle consisting of DMSO, ethanol and 50% (w/w) 2-hydroxypropyl-β-cyclodextrin at a ratio of 1:2:1 (15 mg/ml). CDS's at a dose of 30 mg/kg were injected in the animals through the tail vein. Vehicle only and an equimolar dose of TRH and [Leu^2 ]-TRH, 10 mg/kg, were also administered to compare CNS activities. Ten minutes after i.v. injection of the compound, each animal received an intraperitoneal injection of sodium methohexital solution (45 mg/ml) at a dose of 90 mg/kg. The sleeping time was recorded as the time elapsed from the onset of loss of the […] until the reflex was regained. Each compound and the vehicle control were tested on 5-11 animals. The statistical analysis was performed using the Student's t test.

The subject of data set [2] is Sprague-Dawley rats. The data set is described as follows: Rat tail flick test (analgesia) after i.v. administration. The class given is in vivo. Also on record: Area under the latency change vs. time curve, AUC0-240 min: unit not given here. The note with it: for Tail flick latency period / Maximum tail flick latency: cutoff 60 s; for Tail flick latency period / Maximum tail flick latency / Area under the latency change vs. time curve, AUC0-240 min: mean ± S.E.; for Number of Animals with maximum tail flick latency >60 seconds: cutoff latency 60 seconds; for analgesic effect in tail flick test (in words): i.v., compared to control. On the procedure: Sprague-Dawley rats weighing 200-250 g were used. Drugs were dissolved in the vehicle consisting of DMSO, ethanol and 50% (w/w) 2-hydroxypropyl-β-cyclodextrin at a ratio of 1:2:1. A-CDS at a dose of 5 or 10 mg/2 ml/kg was injected in the animals through the tail vein. Vehicle only, or an equimolar dose (5 mg/kg) of DADLE (equimolar to 10 mg/kg of A-CDS) was also administered to compare the pharmacological activities. Tail flick latency, an index of spinal cord mediated analgesia, was measured before (control) and at 5 minutes, 15 minutes, 30 minutes, 1 hour, 2 hours, 3 hours, 4 hours, 5 hours and 6 hours after drug administration. The instrument used was a model 33 tail flick analgesia meter (lite, Inc., Landing, N.J.) set with the beam dial at 90 and the sensitivity at 8. Time between presentation of a focused beam of light and the reflexive removal of the tail from the stimulus was defined as the tail flick latency period, and the tail flick latency difference between each time point and control was defined as the change in tail flick latency. In the absence of response, a cut-off period of 1 minute was used. Each drug at each dose was tested in ten animals. Results are presented in Tables 5-8 below and in FIGS. 3-5.
Another representative chemical delivery system (AA-CDS) of the invention for the enkephalin analog DADLE, namely compound (69) of EXAMPLE 69, which has an alanine-alanine spacer, was studied in the same rat tail flick test procedure described above to determine its analgesic effects compared to DADLE itself. AA-CDS was tested at a dose of 10 mg/2 ml/kg, which is equimolar to 5 mg/kg of DADLE, and compared with vehicle and 5mg/kg of DADLE exactly as described above. Each dose was tested in ten animals.

Where [3] appears, read: Table 2 experiment, 10 mg/kg i.v.
[4] abbreviates: 10 mg/kg i.v., 0 min (prior to drug administration).
[5] abbreviates: Table 1 experiment, CDS 30 mg/kg i.v.
[6] abbreviates: 5 mg/kg i.v., 0 min (prior to drug administration).

Regarding `NC(=O)[C@@H]1CCCN1C(=O)[C@H](Cc1cnc[nH]1)NC(=O)[C@@H]1CCC(=O)N1` [TRH, PyroGlu-His-Pro-NH2], in data set [1] (setting [3]), the “methohexital induced sleeping time, individual animals” value is 20.47 min and 23.90 min and 15.00 min and 12.90 min and 11.17 min and 11.77 min and 40.82 min; the “methohexital induced sleeping time, mean” value is on record as 19.43 min; the “No. of Death” value came out at 2. For the same compound, the “behavior / symptoms of animals after i.v. administration” value in data set [1] (i.v.) is “tremor, tail-elevation and piloerection”.
Take `CC(C)CCC[C@@H](C)[C@H]1CC[C@H]2[C@@H]3CC=C4C[C@@H](OC(=O)[C@@H](CC(C)C)NC(=O)[C@H](Cc5ccccc5)NC(=O)CNC(=O)[C@@H](C)NC(=O)[C@H](Cc5ccc(O)cc5)NC(=O)[C@H](C)NC(=O)[C@H](C)NC(=O)C5=CN(C)C=CC5)CC[C@]4(C)[C@H]3CC[C@]12C` [Compound (69), 1,4Dihydrotrigonellyl-Ala-Ala-Tyr-D-Ala-Gly-Phe-D-Leu-Cholesteryl Ester] ({Nicotinoyl(1-Me-1,4-dihydro)}-AAY[dA]GF[dL]-{O(cholesteryl)}): the “Number of Animals with maximum tail flick latency 20-40 seconds” value in data set [2] (10 mg/kg i.v.) is given as 2. In addition, the “Number of Animals with maximum tail flick latency 40-60 seconds” value in data set [2] (10 mg/kg i.v.) is reported as 2. Also, the “Number of Animals with maximum tail flick latency <20 seconds” value in data set [2] (10 mg/kg i.v.) was found to be 3. Further, the “Tail flick latency period” value was 8.47 ± 0.76 s in data set [2] (setting [4]); 29.78 ± 5.99 s in data set [2] (10 mg/kg i.v., 5 min); 20.24 ± 5.07 s in data set [2] (10 mg/kg i.v., 15 min); 20.41 ± 5.42 s in data set [2] (10 mg/kg i.v., 30 min); 13.77 ± 2.01 s in data set [2] (10 mg/kg i.v., 60 min); 11.81 ± 0.99 s in data set [2] (10 mg/kg i.v., 120 min). Also, the “Tail flick latency period” value turned out to be 15.94 ± 1.89 s in data set [2] (10 mg/kg i.v., 180 min); 13.99 ± 0.95 s in data set [2] (10 mg/kg i.v., 240 min); 18.43 ± 4.52 s in data set [2] (10 mg/kg i.v., 300 min). Further, the “Maximum tail flick latency” value in data set [2] (10 mg/kg i.v.) turned out to be 34.27 ± 6.20 s. Also, the “Number of Animals with maximum tail flick latency >60 seconds” value in data set [2] (10 mg/kg i.v.) was determined as 2. Besides, in data set [2] (10 mg/kg i.v.), the “Area under the latency change vs. time curve, AUC0-240 min” value was 1639.67 ± 266.61. In addition, the “analgesic effect in tail flick test (in words)” value in data set [2] was “produced a significant analgesic effect”.
For `CC(C)CCC[C@@H](C)[C@H]1CC[C@H]2[C@@H]3CC=C4C[C@@H](OC(=O)CNC(=O)[C@@H]5CCCN5C(=O)[C@H](CC(C)C)NC(=O)[C@H](CCC(N)=O)NC(=O)[C@H](C)NC(=O)[C@H](C)NC(=O)C5=CN(C)C=CC5)CC[C@]4(C)[C@H]3CC[C@]12C` [Compound (12), 1,4-Dihydrotrigonellyl-Ala-Ala-Gln-Leu-Pro-Gly-Cholesteryl Ester] ({Nicotinoyl(1-Me-1,4-dihydro)}-AAQLPG-{O(cholesteryl)}), in data set [1] (setting [5]), the “methohexital induced sleeping time, individual animals” value is 12.08 min and 17.18 min and 27.05 min and 10.07 min and 16.40 min and 19.00 min and 8.13 min and 15.38 min and 17.93 min and 9.45 min; the “methohexital induced sleeping time, mean” value was found to be 15.27 min; the “No. of Death” value was found to be 1.
On to `CC(C)CCC[C@@H](C)[C@H]1CC[C@H]2[C@@H]3CC=C4C[C@@H](OC(=O)[C@@H](CC(C)C)NC(=O)[C@H](Cc5ccccc5)NC(=O)CNC(=O)[C@@H](C)NC(=O)[C@H](Cc5ccc(O)cc5)NC(=O)[C@H](C)NC(=O)C5=CN(C)C=CC5)CC[C@]4(C)[C@H]3CC[C@]12C` [Compound (64), 1,4-Dihydrotrigonellyl-Ala-Tyr-D-Ala-Gly-Phe-D-Leu-Cholesteryl Ester] ({Nicotinoyl(1-Me-1,4-dihydro)}-AY[dA]GF[dL]-{O(cholesteryl)}), for which the figures for the “Number of Animals with maximum tail flick latency 20-40 seconds” value in data set [2] (5 mg/kg i.v.) and in data set [2] (10 mg/kg i.v.) were 2 and 1, respectively. Also, the results for the “Number of Animals with maximum tail flick latency 40-60 seconds” value in data set [2] (5 mg/kg i.v.) and in data set [2] (10 mg/kg i.v.) were 2 and 3, respectively. Also, the entries for the “Number of Animals with maximum tail flick latency <20 seconds” value in data set [2] (5 mg/kg i.v.) and in data set [2] (10 mg/kg i.v.) were 4 and 0, respectively. Besides, the “Tail flick latency period” value in data set [2] (setting [6]) was 7.24 ± 0.58 s; in data set [2] (5 mg/kg i.v., 5 min), 25.95 ± 5.64 s; in data set [2] (5 mg/kg i.v., 15 min), 20.63 ± 5.40 s; in data set [2] (5 mg/kg i.v., 30 min), 14.22 ± 2.22 s; in data set [2] (5 mg/kg i.v., 60 min), 13.00 ± 1.97 s; in data set [2] (5 mg/kg i.v., 120 min) it was 18.37 ± 5.10 s. In addition, the “Tail flick latency period” value in data set [2] (5 mg/kg i.v., 180 min) turned out to be 16.63 ± 2.02 s; in data set [2] (5 mg/kg i.v., 240 min), 20.28 ± 5.58 s; in data set [2] (5 mg/kg i.v., 300 min), 17.84 ± 3.42 s; in data set [2] (setting [4]), 9.21 ± 0.53 s; in data set [2] (10 mg/kg i.v., 5 min), 49.67 ± 4.67 s; in data set [2] (10 mg/kg i.v., 15 min), 40.71 ± 7.00 s. Besides, the “Tail flick latency period” value was 36.03 ± 6.34 s in data set [2] (10 mg/kg i.v., 30 min); 32.59 ± 6.63 s in data set [2] (10 mg/kg i.v., 60 min); 26.28 ± 4.56 s in data set [2] (10 mg/kg i.v., 120 min); 28.50 ± 4.40 s in data set [2] (10 mg/kg i.v., 180 min); 28.30 ± 4.68 s in data set [2] (10 mg/kg i.v., 240 min); 30.15 ± 3.81 s in data set [2] (10 mg/kg i.v., 300 min). Also, the entries for the “Maximum tail flick latency” value in data set [2] (5 mg/kg i.v.) and in data set [2] (10 mg/kg i.v.) were 33.05 ± 5.99 s and 51.94 ± 3.83 s, respectively. Also, the “Number of Animals with maximum tail flick latency >60 seconds” value in data set [2] (5 mg/kg i.v.) is on record as 2; in data set [2] (10 mg/kg i.v.), 6. Also, the “Area under the latency change vs. time curve, AUC0-240 min” value is listed as 2528.70 ± 663.78 in data set [2] (5 mg/kg i.v.) and 4897.80 ± 1011.63 in data set [2] (10 mg/kg i.v.). The “analgesic effect in tail flick test (in words)” value in data set [2] was “significant and prolonged increase in the latency of the tail-flick response”.
As for `CC(C)C[C@@H](NC(=O)[C@H](Cc1ccccc1)NC(=O)CNC(=O)[C@@H](C)NC(=O)[C@@H](N)Cc1ccc(O)cc1)C(=O)O` [DADLE, H-Tyr-D-Ala-Gly-Phe-D-Leu-OH, reference compound], the “Number of Animals with maximum tail flick latency 20-40 seconds” value in data set [2] (5 mg/kg i.v.) is 3. Also, the “Number of Animals with maximum tail flick latency 40-60 seconds” value in data set [2] (5 mg/kg i.v.) came to 0. Further, the “Number of Animals with maximum tail flick latency <20 seconds” value in data set [2] (5 mg/kg i.v.) is 7. For the same compound, the “Tail flick latency period” value came out at 7.97 ± 0.60 s in data set [2] (setting [6]); 12.15 ± 1.53 s in data set [2] (5 mg/kg i.v., 5 min); 12.67 ± 1.18 s in data set [2] (5 mg/kg i.v., 15 min); 12.66 ± 1.70 s in data set [2] (5 mg/kg i.v., 30 min); 15.75 ± 3.03 s in data set [2] (5 mg/kg i.v., 60 min); 10.11 ± 1.29 s in data set [2] (5 mg/kg i.v., 120 min). In addition, the “Tail flick latency period” value was found to be 10.94 ± 1.65 s in data set [2] (5 mg/kg i.v., 180 min); 10.64 ± 1.68 s in data set [2] (5 mg/kg i.v., 240 min); 10.02 ± 1.08 s in data set [2] (5 mg/kg i.v., 300 min). Besides, the “Maximum tail flick latency” value in data set [2] (5 mg/kg i.v.) amounted to 19.68 ± 2.42 s. Besides, the “Number of Animals with maximum tail flick latency >60 seconds” value in data set [2] (5 mg/kg i.v.) is recorded as 0. Also, in data set [2] (5 mg/kg i.v.), the “Area under the latency change vs. time curve, AUC0-240 min” value is on record as 775.58 ± 273.20.
